# According to patent publication US20260069610A1, “INHIBITION OF EFFEROCYTOSIS AS A TREATMENT TO PREVENT BONE LOSS AND INCREASE BONE DENSITY AND STRENGTH” (University of Rochester, priority 2022, published 2026):
# “Also recorded” adds a separate entry of the source.
# Tests used:
# [1] = system: primary human MSCs (hMSCs); assay: Alkaline phosphatase measurement (osteoblastic differentiation) with inhibition of mitochondrial fission, hMSCs; type: cell-based; conditions: for osteoblastic differentiation potential (alkaline phosphatase) of hMSCs: co-treatment with 25 μM Mdivi and PMN
# Method: (§1) FIGS. 6A, 6B, and 6C show quantification via flow cytometry of viability, end stage neutrophil (PMNs) engulfment, and efficiency (mean fluorescent intensity, MFI) of hMSCs pre-treated with 25 μM Mdivi for 1 h and then given end stage PMN for 24 h. […] N=3, Mean±SD shown on graphs ** p<0.01, *** p<0.001, (1-test or ANOVA).
# Cells were washed with PBS 3× and then fixed with formalin for 30 min at room temperature (RT). Following fixation, the cells were washed with water 3× and left to sit for 15 min at RT while preparing alkaline phosphatase (AP) staining. To prepare the AP stain, 5 mg Naphthol AS MX-PO4 was dissolved in 200 μL of N,N-dimethylformamide (DMF), 25 mL 0.2 M Tris pH 8.3, and 25 mL water. Red Violet LB salt (30 mg) was added to solution, vortexed, and filter through 45 μm filter. After incubation with AP stain for 45 min RT, cells were washed with water 3× and then stained with 2.5% silver nitrate for 30 min RT in a ventilated area, then washed with water and air dried. All plates were imaged via light microscopy and quantified for osteoblastic formation using ImageJ software.
# Cells that performed efferocytosis in the presence or absence of Mdivi, were washed and stained for AP as described above. Wells were photographed, and images were analyzed using ImageJ for staining intensity.
# [2] = system: primary human MSCs (hMSCs); assay: Efferocytosis assay with pharmacological inhibition of mitochondrial fission, hMSCs; type: cell-based; conditions: pre-treated with 25 μM Mdivi for 1 h, end stage PMN for 24 h
# Method: as §1
# Primary human MSCs (hMSCs) cells (Lonza) were plated at 2×10^4 per cm^2 in αMEM+10% FBS+1% pen-strep and incubated in 5% O2/5% CO2/37° C. until 80% confluent. Neutrophils were isolated from human peripheral blood via Mono-Poly resolving medium (MP Biomedicals, Inc) according to manufacturer's instructions and incubated in RPMI+10% FBS+10 mM HEPES overnight (18-20 h) at 37° C./5% CO2 as previously described (Casanova-Acebes M, et al. Cell 2013; 153:1025-35). hMSCs were treated with 25 μM Mdivi for 1 h prior to giving 20 nM efluro670 (ThermoFischer) stained end-stage neutrophils in excess (1:10) for 24 h. Cells were then washed 3× with PBS, imaged, and collected for flow cytometry analysis.
# All samples were run on a LSRII flow cytometer: 3 lasers, 355 nm, 488 nm, and 633 nm (BD Biosciences). Analysis was performed using FlowJo version 10.8 (Tree Star). Sorting was done on a FACSAria II with 405-, 488-, 532-, and 633 nm lasers (BD Biosciences). All flow cytometry equipment is housed and quality controlled within the URMC Flow Cytometry core.
# primary human MSCs = assay: Initial toxicity studies in primary human MSCs; type: cell-based
# ST2 cells [3] = assay: Initial toxicity studies in ST2 cells; type: cell-based, murine; conditions: ST2 cells (stromal cell line)
# ST2 cells [4] = assay: In vitro efferocytosis assay, ST2 cells with end stage neutrophils, flow cytometry
# Method: ST2 cells, a bone marrow-derived mesenchymal stromal cell line, were plated at 2×10^4 per cm^2 in αMEM without ascorbic acid (Gibco)+10% FBS+1% pen-strep and incubated in 21% oxygen at 37° C. until 80% confluency. […] End-stage neutrophils were washed with PBS and fluorescently labeled with 20 nM efluro670 (ThermoFischer) according to manufacturer's instructions. Targets (neutrophils or apoptotic lymphocytes) were given in excess (1 MSC: 10 Target) to plated MSCs and incubated for up to 24 h. Cells were then washed 3× with PBS, imaged, and collected for flow cytometry analysis.
# macrophages = conditions: targeting via clodronate; cited from earlier work
smiles,measurement,setting,value
COc1cc(-n2c(S)nc3ccccc3c2=O)c(Cl)cc1Cl [Mdivi],osteoblastic differentiation (alkaline phosphatase) of hMSCs,[1]; Mdivi treatment in the absence of PMN,trending increase in osteoblastic differentiation; also recorded: increases osteoblastic differentiation independent of efferocytic activity
same,osteoblastic differentiation potential (alkaline phosphatase) of hMSCs,[1],rescued the osteoblastic differentiation potential; also recorded: rescues the defect in osteoblastic differentiation
same,osteoblastic differentiation potential (alkaline phosphatase) of hMSCs,[1]; listed as MDivi,restores MSC osteoblastic differentiation
same,efficiency (MFI) of efferocytosis by hMSCs,[2],decreased
same,overall rate of efferocytosis (end stage PMN engulfment) by hMSCs,[2],decreased; also recorded: decreases efferocytic activity in MSCs
same,viability of hMSCs,[2],without impacting their viability
same,overall rate of efferocytosis (end stage PMN engulfment) by hMSCs,[2]; listed as MDivi,decreases human MSC (hMSC) efferocytosis
CN1CCN(Cc2ccc(Nc3ncc(Cl)c(Nc4ccccc4S(=O)(=O)N(C)C)n3)cc2)CC1 [TP0903],toxicity,primary human MSCs,low toxicity
same,toxicity,ST2 cells [3],low toxicity
same,efferocytosis by ST2 cells,"ST2 cells [4]; 3 and 24 hrs, pre treated with 100 nM TP0903 for 1 hr, excess (5 PMN: 1 MSC) end stage hPMNs",blocks efferocytosis for a short duration
same,neutrophil uptake by MSCs,"ST2 cells [4]; 3 hours after neutrophil addition, flow cytometry",significantly reduced
O=P(O)(O)C(Cl)(Cl)P(=O)(O)O [clodronate],bone loss,macrophages,did not result in bone loss
